Test results taken from publication PMC5319980, “Mutant Analysis Reveals Allosteric Regulation of ClpB Disaggregase” (Frontiers in Molecular Biosciences, 2017).

Key:
ClpB [1] = target: T1, ClpB (Escherichia coli, UniProt P63284); assay: biochemical; parameters: competition titration of nucleotide against preformed ClpB-mantADP complex, mantADP fluorescence; conditions: competition with 1.25 uM mantADP; read-out: Knuc (WT)
T1 construct: ClpB wild type
Experimental: with F: observed fluorescence; F0: starting fluorescence without nucleotide; F1: maximum fluorescence observed; [ATP]: concentration of ADP/ATPγS (μM); Ki,app: apparent dissociation constant. with Ki,app: apparent dissociation constant; Ki: dissociation constant; [mantADP]: mantADP concentration (μM); Kd (mantADP): dissociation constant of mantADP. […] ClpB WT and mutants were incubated for 5 min at 25°C in presence of 2 mM ATPγS. Crosslinking reactions were started by addition of glutaraldehyde and proceeded for 2 and 10 min. Crosslinking products were separated by SDS-PAGE, followed by Sypro-Ruby staining. Supplementary Figure 2 Nucleotide binding properties of ClpB wild type. (A)1,5 µM mantADP was incubated with increasing concentrations of ClpB wild type and derivatives and the increase in mantADP fluorescence was determined. The fluorescence intensity of mantADP in absence of ClpB proteins was set at 1. Determined dissociation constants (Kd) are given. (B) Increasing nucleotide concentrations (ADP, ATPγS) were added to a preformed ClpB-mantADP complex (1,25 µM MANTADP, 1,25 µM ClpB WT or derivatives). Determined dissociation constants (Kd) are given.

ClpB [2] = target: T1, ClpB; assay: NADH-coupled ATPase assay with purified ClpB, without and with casein; assay type: biochemical
ClpB [3] = target: ClpB (Escherichia coli, UniProt P63284, K476C); assay: equilibrium fluorescence titration of mantADP with ClpB; assay type: binding
ClpB [4] = target: ClpB (Escherichia coli, UniProt P63284, A328V); assay: as above; assay type: binding
ClpB [5] = target: T1, ClpB; assay: as above; assay type: binding

T1 sequence (P63284 whole entry): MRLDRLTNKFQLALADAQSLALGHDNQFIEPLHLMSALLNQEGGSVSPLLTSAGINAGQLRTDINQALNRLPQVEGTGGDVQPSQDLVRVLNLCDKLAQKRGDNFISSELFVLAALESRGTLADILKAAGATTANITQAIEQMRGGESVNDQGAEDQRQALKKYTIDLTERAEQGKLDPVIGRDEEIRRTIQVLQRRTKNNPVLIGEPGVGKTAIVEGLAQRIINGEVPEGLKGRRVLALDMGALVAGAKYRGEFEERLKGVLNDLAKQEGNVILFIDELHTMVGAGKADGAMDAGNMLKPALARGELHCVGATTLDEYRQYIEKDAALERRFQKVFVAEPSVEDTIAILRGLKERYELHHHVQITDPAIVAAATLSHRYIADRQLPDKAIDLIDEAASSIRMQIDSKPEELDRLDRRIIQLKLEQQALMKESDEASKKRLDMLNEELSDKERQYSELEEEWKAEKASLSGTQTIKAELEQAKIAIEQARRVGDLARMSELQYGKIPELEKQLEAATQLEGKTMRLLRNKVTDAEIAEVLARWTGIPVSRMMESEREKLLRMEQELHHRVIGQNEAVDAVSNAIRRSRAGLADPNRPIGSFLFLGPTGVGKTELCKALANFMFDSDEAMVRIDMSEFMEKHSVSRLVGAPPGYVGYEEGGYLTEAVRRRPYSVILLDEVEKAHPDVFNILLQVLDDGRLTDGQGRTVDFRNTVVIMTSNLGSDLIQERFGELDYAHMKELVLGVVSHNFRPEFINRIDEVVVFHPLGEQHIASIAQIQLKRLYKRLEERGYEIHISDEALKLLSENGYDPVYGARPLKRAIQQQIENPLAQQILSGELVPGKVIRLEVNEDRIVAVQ
Chain of ClpB (Escherichia coli, UniProt P63284, A328V) (P63284 whole entry A328V): as the sequence (P63284 whole entry) above, with A328V counted along it
Chain of ClpB (Escherichia coli, UniProt P63284, K476C) (P63284 whole entry K476C, looked up): as the sequence (P63284 whole entry) above, with K476C counted along it

Nc1ncnc2c1ncn2[C@@H]1O[C@H](COP(=O)(O)OP(=O)(O)O)[C@@H](O)[C@H]1O [ADP]
Kd (ClpB [1]): 7600 nM

Nc1ncnc2c1ncn2[C@@H]1O[C@H](COP(=O)(O)OP(=O)(O)OP(=O)(O)O)[C@@H](O)[C@H]1O [ATP]
NADH-coupled ATPase assay with purified ClpB, without and with casein (ClpB [2]): ATPase activities of ClpB wild type (WT) and indicated ClpB mutants were determined in absence (−) and presence (+)

Nc1ncnc2c1ncn2[C@@H]1O[C@H](CO[P@](=O)(O)O[P@](=O)(O)O[P@@](=O)(O)S)[C@@H](O)[C@H]1O [ATPγS]
Kd (ClpB [1]): 8100 nM

mantADP
Kd (ClpB [3]): 250 nM | Kd (ClpB [4]): 510 nM | Kd (ClpB [5]): 230 nM
